14 compounds from patent US6221914A, “Sulfonamide bridging compounds that inhibit tryptase activity” (Array Biopharma Inc., priority 1998, dated 2001) can be followed below.

SMILES strings stand for the structures. Some results are limits rather than exact numbers.

As usually defined, the Ki is a dissociation constant, usually derived from enzyme kinetics or from competition with a known ligand.

What all share (assay type): biochemical
Assay [1] has as its target T1, Human plasma factor Xa (Homo sapiens, UniProt P00742).
T1 construct: from tissue; host or cells: human plasma
The assay is described as follows: Ki determination, human plasma factor Xa (N-Benzoyl-Ile-Glu-Gly-Arg-pNA). Particulars: 50 mM Tris-HCl, pH 7.8, 200 mM NaCl, 0.05% BSA; read-out: Experimentally Determined Ki, Factor Xa. On the procedure: (§1) Protease inhibition was assayed according to published procedures with minor modifications using various proteases and specific chromogenic peptide p-nitroanilide substrates. Assays were performed in Costar ultra-low cluster 96-well microtiter plate (Costar Corning Corp., Cambridge Mass.). Each protease was incubated with various concentrations of the test compound for 15 min. at 37° C. or as otherwise indicated, in specific assay buffer, and the residual activity was then measured by addition of the substrate. p-Nitroaniline produced by the proteolysis was determined by measuring the change in absorbance at 405 nm on a SpectraMAX 340 plate reader (Molecular devices, Sunnyvale, Calif.).
(§2) 1. The inhibition constant, Ki is calculated from individual data points using the equation for a tight-binding inhibitor (See Beith, "Proteinase Inhibitors-Proceedings of 2nd Int. Res. Conference", Fritz, et al. eds, New York, p.4463-4469 (1974)):
(§3) vi /vo [((Ki '+[I]+[E]o)^2 -4 [I]o
(§4) [E]o)^1/2 (Ki '+[I]o -[E]o)]/2[E]o
(§5) where Ki ' is apparent inhibition constant; vi and vo are the inhibited and uninhibited rates, respectively; [I]o and [E]o are the total concentrations of inhibitor and enzyme, respectively.
(§6) [note: [E]o is determined by active site titration of enzyme]
(§7) The Ki values are obtained by correcting Ki ' values for the effect of substrate concentration according to: [formula]
(§8) 2. Other inhibition data (Ki >>[E]o), the Ki is calculated from using the equations for a competitive inhibitor: [formula]
Human plasma factor Xa activity was determined by using N-Benzoyl-Ile-Glu-Gly-Arg-pNA in 50 mM Tris-HCl, pH 7.8, 200 mM NaCl, 0.05% BSA (See Lottenberg, et al. Meth. Enzymol. 80, 341-361 (1981)).
(§9) The inhibition constant (Ki) of the test compounds against each proteolytic enzyme was determined according to Zitnik et al., Biochem. Biophys. Res. Commun. 232, 687-697 (1997)).

Assay [2] concerns the target T2, Human plasma kallikrein (Homo sapiens, UniProt P03952).
T2 construct: from tissue; host or cells: human plasma
The assay is described as follows: Ki determination, human plasma kallikrein (H-D-Prolyl-Phe-Arg-pNA). Particulars: 50 mM Tris-HCl, pH 7.8, 200 mM NaCl, 0.05% BSA; read-out: Experimentally Determined Ki, Plasma Kallikrein. The procedure:
as §1, §2, §3, §4, §5, §6, §7, §8
I. Human Plasma and r-Tissue Kallikrein
Human plasma and r-tissue kallikrein activity were determined in 50 mM Tris-HCl, pH 7.8, 200 mM NaCl, 0.05% BSA by using H-D-Prolyl-Phe-Arg-pNA and DL-Val-Leu-Arg-pNA, respectively (See Lottenberg, et al., Meth. Enzymol. 80, 341-361 (1981)).
as §9

In assay [3] the target is T3, Human plasma plasmin (Homo sapiens, UniProt P00747).
T3 construct: from tissue; host or cells: human plasma
The assay is described as follows: Ki determination, human plasma plasmin (Tosyl-Gly-Pro-Lys-pNA). Particulars: 100 mM Tris-HCl, pH 7.4, 100 mM NaCl, 0.05% Triton X-100; read-out: Experimentally Determined Ki, Plasmin. On the procedure: as §1, §2, §3, §4, §5, §6, §7, §8
Human plasma plasmin activity was determined by using Tosyl-Gly-Pro-Lys-pNAin 100 mM Tris-HCl, pH 7.4, 100 mM NaCl, 0.05% Triton X-100 (See Lottenberg, et al., Meth. Enzymol. 80, 341-361 (1981)).
as §9

Assay [4] addresses T4, Human Neutrophil elastase (Homo sapiens, UniProt P08246).
T4 construct: from tissue; host or cells: human neutrophils
T4 sequence (P08246 30-267): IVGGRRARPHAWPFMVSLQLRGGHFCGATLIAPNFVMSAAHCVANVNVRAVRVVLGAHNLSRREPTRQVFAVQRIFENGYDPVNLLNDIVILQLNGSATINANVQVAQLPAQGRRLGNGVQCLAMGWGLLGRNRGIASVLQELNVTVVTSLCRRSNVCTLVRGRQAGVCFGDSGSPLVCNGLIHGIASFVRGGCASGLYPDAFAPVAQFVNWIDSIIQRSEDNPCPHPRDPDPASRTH
The assay is described as follows: Ki determination, human neutrophil elastase (pyroGlu-Pro-Val-pNA). To be noted: 100 mM Tris-HCl, pH 8.3, 0.96 M NaCl, 1% BSA; read-out: Experimentally Determined Ki, Elastase. The procedure: as §1, §2, §3, §4, §5, §6, §7, §8
Human Neutrophil elastase activity was determined by using pyroGlu-Pro-Val-pNA in 100 mM Tris-HCl, pH 8.3, 0.96 M NaCl, 1% BSA (See Kramps, et al. Scand. J. Clin. Lab. Invest. 43, 427-432 (1983)).
as §9

Assay [5] concerns the target T5, Human Neutrophil Cathepsin G (Homo sapiens, UniProt P08311).
T5 construct: from tissue; host or cells: human neutrophils
T5 sequence (P08311 21-255): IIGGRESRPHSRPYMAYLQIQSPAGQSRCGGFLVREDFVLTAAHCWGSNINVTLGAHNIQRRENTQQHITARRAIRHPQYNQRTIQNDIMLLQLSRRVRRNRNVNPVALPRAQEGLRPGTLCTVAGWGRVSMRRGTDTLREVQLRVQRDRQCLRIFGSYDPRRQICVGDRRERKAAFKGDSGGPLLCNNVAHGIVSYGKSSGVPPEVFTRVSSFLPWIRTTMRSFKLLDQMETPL
The assay is described as follows: Ki determination, human neutrophil cathepsin G (N-Suc-Ala-Ala-Pro-Phe-pNA). Particulars: 625 mM Tris-HCl, pH 7.5, 2.5 mM MgCl2, 0.125% Brij 35; read-out: Experimentally Determined Ki, Cathepsin G. On the procedure:
as §1, §2, §3, §4, §5, §6, §7, §8
Human Neutrophil Cathepsin G activity was determined by using N-Suc-Ala-Ala-Pro-Phe-pNA in 625 mM Tris-HCl, pH 7.5, 2.5 mM MgCl2, 0.125% Brij 35 (See Groutas et al., Arch. Biochem. Biophys. 294, 144-146 (1992)).
as §9

T3 sequence (P00747 581-810 limits assumed): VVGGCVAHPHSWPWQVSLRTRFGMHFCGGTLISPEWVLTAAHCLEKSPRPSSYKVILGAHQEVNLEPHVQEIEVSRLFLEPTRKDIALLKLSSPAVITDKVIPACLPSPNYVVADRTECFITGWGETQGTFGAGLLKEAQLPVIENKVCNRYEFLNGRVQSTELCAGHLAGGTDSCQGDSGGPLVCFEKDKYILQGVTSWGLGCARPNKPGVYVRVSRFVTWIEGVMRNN
T3 sequence (P00747 97-580 partner limits assumed): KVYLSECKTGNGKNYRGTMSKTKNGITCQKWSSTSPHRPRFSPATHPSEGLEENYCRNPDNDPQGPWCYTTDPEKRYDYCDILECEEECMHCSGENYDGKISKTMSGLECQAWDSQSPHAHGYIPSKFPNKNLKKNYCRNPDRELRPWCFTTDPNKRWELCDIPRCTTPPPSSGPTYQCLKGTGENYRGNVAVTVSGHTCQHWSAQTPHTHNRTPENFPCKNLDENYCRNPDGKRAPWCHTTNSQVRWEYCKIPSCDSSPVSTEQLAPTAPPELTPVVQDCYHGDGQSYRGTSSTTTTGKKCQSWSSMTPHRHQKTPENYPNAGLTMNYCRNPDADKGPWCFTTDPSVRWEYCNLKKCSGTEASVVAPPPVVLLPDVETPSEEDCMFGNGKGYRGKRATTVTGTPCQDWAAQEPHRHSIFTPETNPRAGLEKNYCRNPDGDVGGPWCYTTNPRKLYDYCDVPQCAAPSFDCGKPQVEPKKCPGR
T1 sequence (P00742 235-488 limits assumed): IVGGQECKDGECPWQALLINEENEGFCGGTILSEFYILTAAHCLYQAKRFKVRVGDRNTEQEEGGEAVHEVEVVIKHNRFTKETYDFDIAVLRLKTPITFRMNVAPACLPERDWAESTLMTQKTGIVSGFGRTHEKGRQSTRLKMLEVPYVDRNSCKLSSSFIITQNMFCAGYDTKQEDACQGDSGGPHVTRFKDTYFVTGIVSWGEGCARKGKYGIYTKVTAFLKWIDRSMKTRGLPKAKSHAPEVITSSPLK
T1 sequence (P00742 41-179 partner limits assumed): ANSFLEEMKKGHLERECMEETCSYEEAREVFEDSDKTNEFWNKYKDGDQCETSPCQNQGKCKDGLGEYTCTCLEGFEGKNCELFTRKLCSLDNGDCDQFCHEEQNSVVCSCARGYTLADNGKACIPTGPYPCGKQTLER
T2 sequence (P03952 391-638 limits assumed): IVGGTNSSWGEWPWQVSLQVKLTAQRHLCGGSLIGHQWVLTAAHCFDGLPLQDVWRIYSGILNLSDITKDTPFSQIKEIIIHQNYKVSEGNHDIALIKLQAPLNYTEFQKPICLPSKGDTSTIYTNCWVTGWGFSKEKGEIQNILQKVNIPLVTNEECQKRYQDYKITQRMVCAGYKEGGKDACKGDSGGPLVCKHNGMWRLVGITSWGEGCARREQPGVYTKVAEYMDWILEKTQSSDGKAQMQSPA
T2 sequence (P03952 20-390 partner limits assumed): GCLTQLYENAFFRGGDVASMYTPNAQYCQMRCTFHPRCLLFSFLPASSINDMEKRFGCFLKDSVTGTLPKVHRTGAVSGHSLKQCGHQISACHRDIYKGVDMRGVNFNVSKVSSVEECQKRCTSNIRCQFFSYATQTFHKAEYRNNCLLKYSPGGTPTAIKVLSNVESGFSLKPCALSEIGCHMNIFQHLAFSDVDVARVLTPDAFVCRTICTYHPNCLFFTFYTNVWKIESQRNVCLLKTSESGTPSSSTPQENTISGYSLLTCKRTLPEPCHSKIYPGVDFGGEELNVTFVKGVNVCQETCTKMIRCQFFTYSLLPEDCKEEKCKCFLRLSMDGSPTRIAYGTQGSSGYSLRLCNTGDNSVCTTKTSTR

Turning to `N=C(N)c1cccc(C(=O)NCc2ccc(OCCCCCCCOc3ccc(CNC(=O)c4cccc(C(=N)N)c4)cc3)cc2)c1` [Example 59, 1,7-Bis-{4-[(3-carbamimidoyl-benzenecarbonylamino)-methyl]-phenoxy}-heptane], the Ki in assay [1] is 8.3 µM; in assay [2], 72 µM; in assay [3] it was 8.7 µM; in assay [4], greater than 100 µM; in assay [5], greater than 100 µM.

Turning to `N=C(N)c1ccc(C(=O)NCc2ccc(OCCCOc3ccc(CNC(=O)c4ccc(CN)cc4)cc3)cc2)cc1` [Example 87, N-[4-(3-{4-[(4-Aminomethyl-benzoylamino)-methyl]-phenoxy}-propoxy)-benzyl]-4-carbamimidoyl-benzamide], the inhibition constant Ki in assay [1] was 19 µM; in assay [2], 3.5 µM; in assay [3], 7.6 µM; in assay [4], greater than 100 µM; in assay [5], greater than 100 µM.

Turning to `N=C(N)c1ccc(C(=O)NCc2ccc(OCCCCCOc3ccc(CNC(=O)c4ccc(C(=N)N)cc4)cc3)cc2)cc1` [Example 54, 1,5-Bis-{4-[(4-carbamimidoyl-benzenecarbonylamino)-methyl]-phenoxy}-pentane], the Ki in assay [1] was greater than 100 µM; in assay [2] it was 16 µM; in assay [3] it was 4.1 µM; in assay [4], greater than 100 µM; in assay [5] it was greater than 100 µM.

`N=C(N)c1ccc2[nH]c(CC(=O)NCc3ccc(OCCCOc4ccc(CNC(=O)Cc5nc6cc(C(=N)N)ccc6[nH]5)cc4)cc3)nc2c1` [Example 107, 2-(5-Carbamimidoyl-1H-benzoimidazol-2-yl)-N-{4,-[3-(4-{2-(5-carbamimidoyl-1H-benzoimidazol-2-yl)acetylaminol-methyl}-phenoxy)-propoxy]-benzyl}-acetamide]: the inhibition constant (Ki) in assay [1] is 27 µM; in assay [2], 12 µM; in assay [3] it was 2.1 µM; in assay [4], greater than 100 µM; in assay [5] it was greater than 100 µM.

Consider `N=C(N)c1cccc(S(=O)(=O)NCc2ccc(OCCOc3ccc(CNS(=O)(=O)c4cccc(C(=N)N)c4)cc3)cc2)c1` [Example 51, 1,2-Bis-{4-[(3-carbamimidoyl-benzenesulfonylamino)-methyl]-phenoxy}-ethane], for which the Ki in assay [1] was 6.1 µM; in assay [2] it was 12 µM; in assay [3] it was 2 µM; in assay [4] it was greater than 100 µM; in assay [5] it was greater than 100 µM.

Turning to `N=C(N)c1ccc(C(=O)NCc2ccc(OCCCCCCCOc3ccc(CNC(=O)c4ccc(C(=N)N)cc4)cc3)cc2)cc1` [Example 58, 1,7-Bis-{4-[(4-carbamimidoyl-benzenecarbonylamino)-methyl]-phenoxy}-heptane], the Ki in assay [1] is 20 µM; in assay [2], 46 µM; in assay [3], 3.8 µM; in assay [4] it was greater than 100 µM; in assay [5] it was greater than 100 µM.

Consider `N=C(N)c1cccc(S(=O)(=O)NCc2ccc(COCc3ccc(CNS(=O)(=O)c4cccc(C(=N)N)c4)cc3)cc2)c1` [Example 53, 1,3-Bis-{4-[(3-carbamimidoyl-benzenesulfonylamino)-methyl]-phenyl}-2-oxapropane], for which the inhibition constant (Ki) was 16 µM in assay [1]; 8.8 µM in assay [2]; 10 µM in assay [3]; greater than 100 µM in assay [4]; greater than 100 µM in assay [5].

As for `N=C(N)c1ccc2[nH]c(CC(=O)NCc3ccc(OCCCCOc4ccc(CNC(=O)Cc5nc6cc(C(=N)N)ccc6[nH]5)cc4)cc3)nc2c1` [Example 109], the inhibitory constant (Ki) was 40 µM in assay [1]; 2.5 µM in assay [2]; 0.11 µM in assay [3]; greater than 100 µM in assay [4]; greater than 100 µM in assay [5].

With `N=C(N)c1ccc(C(=O)NCc2ccc(OCCOc3ccc(CNC(=O)c4ccc(C(=N)N)cc4)cc3)cc2)cc1` [Example 64, 1,2-Bis-{4-[(4-carbamimidoyl-benzoylamino)-methyl]-phenoxy}-ethane], the Ki was 35.3 µM in assay [1]; 7.3 µM in assay [2]; 6.5 µM in assay [3]; greater than 100 µM in assay [4]; greater than 100 µM in assay [5].

Take `N=C(N)c1ccc(C(=O)NCc2ccc(OCCCCOc3ccc(CNC(=O)c4ccc(C(=N)N)cc4)cc3)cc2)cc1` [Example 60, 1,4-Bis-{4-[(4-carbamimidoyl-benzenecarbonylamino)-methyl]-phenoxy}-butane]: the inhibitory constant (Ki) in assay [1] is 17.7 µM; in assay [2] it was 6.3 µM; in assay [3] it was 12 µM; in assay [4], greater than 100 µM; in assay [5], greater than 100 µM.

Consider `CN(Cc1ccc(OCCCOc2ccc(CN(C)S(=O)(=O)c3cccc(C(=N)N)c3)cc2)cc1)S(=O)(=O)c1cccc(C(=N)N)c1` [Example 68, 1,3-Bis-{4-[(3-carbamimidoyl-benzenesulfonyl-[N-methyl]-amino)-methyl]-phenoxy}-propane], for which the Ki in assay [1] is 20 µM; in assay [2], 4.3 µM; in assay [3] it was 10 µM; in assay [4] it was greater than 100 µM; in assay [5], greater than 100 µM.

As for `N=C(N)c1ccc2sc(C(=O)NCc3ccc(OCCCOc4ccc(CNC(=O)c5cc6cc(C(=N)N)ccc6s5)cc4)cc3)cc2c1` [Example 117, 1,3-Bis-{4-[(5-carbamidoyl-2-benzthiophenyl-carbamido)-methyl]-phenoxy}-propane], the Ki in assay [1] is 59 µM; in assay [2], greater than 100 µM; in assay [3], 50 µM; in assay [4] it was greater than 100 µM; in assay [5], greater than 100 µM.

`N=C(N)c1cccc(C(=O)NCc2cccc(OCCCCCOc3cccc(CNC(=O)c4cccc(C(=N)N)c4)c3)c2)c1` [Example 77, 1,5-Bis-{3-[(3-carbamimidoyl-benzenecarbonylamino)-methyl]-phenoxy}-pentane]: the Ki in assay [1] was 1.9 µM; in assay [2], 2.9 µM; in assay [3], 4.3 µM; in assay [4], greater than 100 µM; in assay [5] it was greater than 100 µM.

As for `N=C(N)c1ccc(C(=O)NCc2ccc(OCCCOc3ccc(CNS(=O)(=O)c4cccc(C(=N)N)c4)cc3)cc2)cc1` [Example 86, 4-Carbamimidoyl-N-[4-(3-{4-[(3-carbamimidoyl-benzenesulfonylamino)-methyl]-phenoxy}-propoxy)-benzyl]-benzamide], the Ki in assay [1] was 10 µM; in assay [2], 1.4 µM; in assay [3] it was 0.34 µM; in assay [4], greater than 100 µM; in assay [5] it was greater than 100 µM.
